Several values for one entry are separate records, joined by “and”; a condition that tells them apart may be missing. Identical values can stand only once.
Key:
TRABID = target: T1, TRABID (Homo sapiens, UniProt Q9UGI0); assay: Biochemical DUB selectivity profiling assay: TRABID; settings: Ub-Rho110 400 nM, buffer B; read-out: Biochemical IC50 range, TRABID
T1 sequence (Q9UGI0 1-708): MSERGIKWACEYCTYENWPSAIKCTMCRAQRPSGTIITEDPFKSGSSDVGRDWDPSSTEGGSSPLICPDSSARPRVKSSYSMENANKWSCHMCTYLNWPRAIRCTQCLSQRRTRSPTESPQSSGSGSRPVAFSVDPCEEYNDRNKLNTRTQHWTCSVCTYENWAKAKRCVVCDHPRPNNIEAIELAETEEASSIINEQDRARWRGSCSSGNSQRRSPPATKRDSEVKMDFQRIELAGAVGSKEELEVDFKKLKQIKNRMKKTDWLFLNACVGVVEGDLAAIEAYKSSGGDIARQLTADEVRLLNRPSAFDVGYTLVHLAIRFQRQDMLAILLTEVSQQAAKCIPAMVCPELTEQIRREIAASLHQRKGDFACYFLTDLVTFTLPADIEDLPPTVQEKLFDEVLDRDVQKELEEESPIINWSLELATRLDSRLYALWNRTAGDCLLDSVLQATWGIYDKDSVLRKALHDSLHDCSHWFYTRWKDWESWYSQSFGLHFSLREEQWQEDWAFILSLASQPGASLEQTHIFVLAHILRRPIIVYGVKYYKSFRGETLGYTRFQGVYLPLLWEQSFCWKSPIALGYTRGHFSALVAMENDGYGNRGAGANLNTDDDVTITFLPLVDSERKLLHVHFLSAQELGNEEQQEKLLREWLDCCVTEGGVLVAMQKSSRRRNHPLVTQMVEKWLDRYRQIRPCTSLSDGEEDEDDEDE
Procedure: DUB Assay Substrate Substrate
Buffer Concentration (nM) […]
Sepharose® 4B resin (GE Healthcare).
10 kDa molecular weight cut-off (MWCO)).
Fractions containing protein
Protein concentration was […]
reaction volume of 21 μL. […]
compound (final concentration 5 nM).
IC50 values were determined
Biochemical DUB selectivity profiling assays […]
in 40 µL total reaction volume.

[1] = target: DUBs and other proteins in HEK293 cells (Homo sapiens, UniProt O00303); assay: In-cell proteome-wide competitive ABPP, HEK293: other DUBs and proteins; settings: for Log2 reporter intensity values, EIF3F: TMT replicates; for Log2 reporter intensity values: EIF3F: competition with ABP 2, DMSO substract (FC); for Log2 reporter intensity values: EIF3F / Log2 reporter intensity values: replicates A-C; for Log2 t-test Difference / Log2 reporter intensity values: EIF3F
[2] = target: DUBs and other proteins in HEK293 cells (Homo sapiens, UniProt O15372); assay: as above; settings: for Log2 reporter intensity values, EIF3H: TMT replicates; for Log2 reporter intensity values: EIF3H: competition with ABP 2, DMSO substract (FC); for Log2 reporter intensity values: EIF3H / Log2 reporter intensity values: replicates A-C; for Log2 t-test Difference / Log2 reporter intensity values: EIF3H
[3] = target: T2, DUBs and other proteins in HEK293 cells (Homo sapiens, UniProt Q53GS9); assay: as above; settings: replicates A-C; for Log2 reporter intensity values: USP39: competition with ABP 2, DMSO substract (FC); for Log2 reporter intensity values: USP39, DMSO subtracted
T2 sequence (Q53GS9 1-565): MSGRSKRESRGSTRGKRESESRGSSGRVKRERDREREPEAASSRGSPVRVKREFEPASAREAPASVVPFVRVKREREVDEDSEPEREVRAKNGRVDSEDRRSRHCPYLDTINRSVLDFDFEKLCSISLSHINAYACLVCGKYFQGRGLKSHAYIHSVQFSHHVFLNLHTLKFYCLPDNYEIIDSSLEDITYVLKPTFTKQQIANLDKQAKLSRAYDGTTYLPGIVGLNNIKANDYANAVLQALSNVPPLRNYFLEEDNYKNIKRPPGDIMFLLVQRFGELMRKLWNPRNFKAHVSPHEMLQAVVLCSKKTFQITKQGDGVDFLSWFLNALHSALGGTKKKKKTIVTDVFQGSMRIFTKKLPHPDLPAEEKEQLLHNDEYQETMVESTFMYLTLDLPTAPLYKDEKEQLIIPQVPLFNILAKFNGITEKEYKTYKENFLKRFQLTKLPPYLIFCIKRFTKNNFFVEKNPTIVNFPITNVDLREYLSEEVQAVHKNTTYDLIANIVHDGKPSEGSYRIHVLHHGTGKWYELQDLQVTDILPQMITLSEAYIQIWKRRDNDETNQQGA

[4] = target: DUBs and other proteins in HEK293 cells (Homo sapiens, UniProt Q6P2Q9); assay: as above; settings: replicates A-C; for Log2 reporter intensity values: PRPF8: competition with ABP 2, DMSO substract (FC); for Log2 reporter intensity values: PRPF8, DMSO subtracted
[5] = target: DUBs and other proteins in HEK293 cells (Homo sapiens, UniProt Q92905); assay: as above; settings: for Log2 reporter intensity values, COPS5: TMT replicates; for Log2 reporter intensity values: COPS5: competition with ABP 2, DMSO substract (FC); for Log2 reporter intensity values: COPS5 / Log2 reporter intensity values: replicates A-C; for Log2 t-test Difference / Log2 reporter intensity values: COPS5
[6] = target: DUBs and other proteins in HEK293 cells (Homo sapiens, UniProt Q96FW1); assay: as above; settings: replicates A-C; for Log2 reporter intensity values: OTUB1: competition with ABP 2, DMSO substract (FC); for Log2 reporter intensity values: OTUB1, DMSO subtracted
[7] = target: DUBs and other proteins in HEK293 cells (Homo sapiens, UniProt Q9Y5T5); assay: as above; settings: replicates A-C; for Log2 reporter intensity values: USP16: competition with ABP 2, DMSO substract (FC); for Log2 reporter intensity values: USP16, DMSO subtracted
[8] = 1 μM 1 (60 min) + 20 nM ABP 2 (10 min), All values
[9] = 1 μM 1 (60 min) + 20 nM ABP 2 (10 min), DMSO subtracted
[10] = 4 μM 1 (60 min) + 20 nM ABP 2 (10 min), All values
[11] = 4 μM 1 (60 min) + 20 nM ABP 2 (10 min), DMSO subtracted

Sequence of DUBs and other proteins in HEK293 cells (Homo sapiens, UniProt Q92905) (Q92905 whole entry): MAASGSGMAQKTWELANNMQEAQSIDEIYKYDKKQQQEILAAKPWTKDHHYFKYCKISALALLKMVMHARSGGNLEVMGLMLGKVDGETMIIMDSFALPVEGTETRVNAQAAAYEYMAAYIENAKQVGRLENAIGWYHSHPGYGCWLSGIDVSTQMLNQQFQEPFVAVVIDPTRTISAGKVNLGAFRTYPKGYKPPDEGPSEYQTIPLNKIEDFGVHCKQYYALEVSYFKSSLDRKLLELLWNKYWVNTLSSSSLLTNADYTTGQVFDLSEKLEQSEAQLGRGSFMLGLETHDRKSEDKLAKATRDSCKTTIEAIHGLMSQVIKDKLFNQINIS
Sequence of DUBs and other proteins in HEK293 cells (Homo sapiens, UniProt Q96FW1) (Q96FW1 whole entry): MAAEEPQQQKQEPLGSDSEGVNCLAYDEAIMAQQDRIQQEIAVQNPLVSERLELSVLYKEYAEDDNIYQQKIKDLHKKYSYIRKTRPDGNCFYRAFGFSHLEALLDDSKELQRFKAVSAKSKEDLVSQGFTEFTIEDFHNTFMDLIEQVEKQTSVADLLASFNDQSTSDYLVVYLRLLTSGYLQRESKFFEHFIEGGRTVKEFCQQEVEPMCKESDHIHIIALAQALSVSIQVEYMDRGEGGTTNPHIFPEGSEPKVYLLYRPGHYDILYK
Sequence of DUBs and other proteins in HEK293 cells (Homo sapiens, UniProt O00303) (O00303 whole entry): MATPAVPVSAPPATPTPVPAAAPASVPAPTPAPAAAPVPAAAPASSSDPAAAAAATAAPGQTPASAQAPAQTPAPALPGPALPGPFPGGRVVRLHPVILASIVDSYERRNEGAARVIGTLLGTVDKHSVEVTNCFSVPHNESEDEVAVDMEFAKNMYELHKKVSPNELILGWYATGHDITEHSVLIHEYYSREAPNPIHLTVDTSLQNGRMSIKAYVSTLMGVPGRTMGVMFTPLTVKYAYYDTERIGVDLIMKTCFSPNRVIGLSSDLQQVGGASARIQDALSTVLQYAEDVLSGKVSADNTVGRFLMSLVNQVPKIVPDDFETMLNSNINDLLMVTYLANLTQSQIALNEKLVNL
Sequence of DUBs and other proteins in HEK293 cells (Homo sapiens, UniProt Q9Y5T5) (Q9Y5T5 whole entry): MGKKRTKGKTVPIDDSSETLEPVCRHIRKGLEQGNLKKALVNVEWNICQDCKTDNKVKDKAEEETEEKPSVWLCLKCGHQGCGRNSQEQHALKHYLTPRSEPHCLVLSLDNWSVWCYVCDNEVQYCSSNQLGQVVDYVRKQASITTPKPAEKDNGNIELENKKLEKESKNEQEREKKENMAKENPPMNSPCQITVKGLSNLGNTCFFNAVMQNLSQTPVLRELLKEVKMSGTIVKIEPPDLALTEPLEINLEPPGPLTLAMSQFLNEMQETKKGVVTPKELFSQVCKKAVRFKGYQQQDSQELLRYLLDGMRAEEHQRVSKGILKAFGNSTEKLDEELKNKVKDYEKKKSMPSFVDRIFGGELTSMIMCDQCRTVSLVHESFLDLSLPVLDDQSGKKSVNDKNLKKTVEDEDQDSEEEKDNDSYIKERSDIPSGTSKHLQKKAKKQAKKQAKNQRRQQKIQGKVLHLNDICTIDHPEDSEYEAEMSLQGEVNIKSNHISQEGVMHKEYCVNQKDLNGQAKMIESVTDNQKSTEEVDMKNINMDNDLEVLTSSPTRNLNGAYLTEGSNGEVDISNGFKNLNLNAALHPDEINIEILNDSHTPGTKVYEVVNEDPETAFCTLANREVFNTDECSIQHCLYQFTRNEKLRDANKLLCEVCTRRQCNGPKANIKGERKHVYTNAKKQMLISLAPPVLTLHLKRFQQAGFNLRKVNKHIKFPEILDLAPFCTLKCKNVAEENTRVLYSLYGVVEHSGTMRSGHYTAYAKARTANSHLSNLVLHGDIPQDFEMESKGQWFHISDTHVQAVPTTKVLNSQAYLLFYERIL
Sequence of DUBs and other proteins in HEK293 cells (Homo sapiens, UniProt O15372) (O15372 whole entry): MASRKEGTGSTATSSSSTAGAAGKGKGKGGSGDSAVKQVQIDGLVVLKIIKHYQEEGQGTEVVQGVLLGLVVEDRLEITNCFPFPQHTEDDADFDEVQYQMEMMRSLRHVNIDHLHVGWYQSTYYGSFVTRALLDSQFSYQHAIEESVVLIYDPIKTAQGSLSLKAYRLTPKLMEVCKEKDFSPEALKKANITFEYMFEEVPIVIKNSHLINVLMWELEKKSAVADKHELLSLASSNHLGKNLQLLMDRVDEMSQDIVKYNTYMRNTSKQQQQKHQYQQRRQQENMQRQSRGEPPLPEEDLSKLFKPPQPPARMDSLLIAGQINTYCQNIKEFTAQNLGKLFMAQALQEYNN

- IC50 (TRABID): > 10 µM
- Log2 reporter intensity values, EIF3F [1, 8]: -0.05755 and -0.0632 and -0.06224
- Log2 reporter intensity values, EIF3F [1, 9]: -0.048 and -0.05365 and -0.05269
- Log2 reporter intensity values, EIF3F [1, 10]: 0.06402 and -0.06596 and 0.05418
- Log2 reporter intensity values, EIF3F [1, 11]: 0.07357 and -0.05641 and 0.06373
- Log2 reporter intensity values: EIF3F ([1]; 1 at 1 μM): 0.9673 and 0.9635 and 0.9641
- Log2 reporter intensity values: EIF3F ([1]; 1 at 4 μM): 1.052 and 0.9617 and 1.045
- Log2 t-test Difference ([1]; 1 - 1 μM): -0.1421
- Log2 t-test Difference ([1]; 1 - 4 μM): -0.06374
- Log2 reporter intensity values ([1]; 1_1 μM, DMSO subtracted): -0.03315 and -0.03692 and -0.03628
- Log2 reporter intensity values ([1]; 1_4 μM, DMSO subtracted): 0.0519 and -0.03877 and 0.04475
- Log2 reporter intensity values ([1]; 1 at 1 μM, DMSO subtracted): -0.048 and -0.05365 and -0.05269
- Log2 reporter intensity values ([1]; 1 at 4 μM, DMSO subtracted): 0.07357 and -0.05641 and 0.06373
- Log2 reporter intensity values, EIF3H [2, 8]: -0.09256 and -0.05547 and -0.03085
- Log2 reporter intensity values, EIF3H [2, 9]: -0.1222 and -0.08506 and -0.06044
- Log2 reporter intensity values, EIF3H [2, 10]: -0.07138 and -0.1308 and -0.1362
- Log2 reporter intensity values, EIF3H [2, 11]: -0.101 and -0.1603 and -0.1658
- Log2 reporter intensity values: EIF3H ([2]; 1 at 1 μM): 0.9188 and 0.9427 and 0.959
- Log2 reporter intensity values: EIF3H ([2]; 1 at 4 μM): 0.9324 and 0.8948 and 0.8914
- Log2 t-test Difference ([2]; 1 - 1 μM): -0.08557
- Log2 t-test Difference ([2]; 1 - 4 μM): -0.1387
- Log2 reporter intensity values ([2]; 1_1 μM, DMSO subtracted): -0.08133 and -0.0574 and -0.04117
- Log2 reporter intensity values ([2]; 1_4 μM, DMSO subtracted): -0.06774 and -0.1053 and -0.1087
- Log2 reporter intensity values ([2]; 1 at 1 μM, DMSO subtracted): -0.1222 and -0.08506 and -0.06044
- Log2 reporter intensity values ([2]; 1 at 4 μM, DMSO subtracted): -0.101 and -0.1603 and -0.1658
- Log2 reporter intensity values: USP39 ([3]; 1 at 1 μM): 1.016 and 0.9671 and 0.9953
- Log2 reporter intensity values: USP39 ([3]; 1 at 4 μM): 1.053 and 0.9437 and 0.9559
- Log2 reporter intensity values ([3]; 1_1 μM): 0.01573 and -0.03349 and -0.00527
- Log2 reporter intensity values ([3]; 1_4 μM): 0.0526 and -0.05693 and -0.04466
- Log2 reporter intensity values ([3]; 1 at 1 μM): 0.02338 and -0.04824 and -0.006739
- Log2 reporter intensity values ([3]; 1 at 4 μM): 0.0748 and -0.08363 and -0.065
- Log2 reporter intensity values: PRPF8 ([4]; 1 at 1 μM): 0.961 and 0.941 and 0.9412
- Log2 reporter intensity values: PRPF8 ([4]; 1 at 4 μM): 0.9254 and 0.9448 and 0.8776
- Log2 reporter intensity values ([4]; 1_1 μM): -0.03926 and -0.05927 and -0.05901
- Log2 reporter intensity values ([4]; 1_4 μM): -0.07482 and -0.05547 and -0.1226
- Log2 reporter intensity values ([4]; 1 at 1 μM): -0.05742 and -0.08778 and -0.08738
- Log2 reporter intensity values ([4]; 1 at 4 μM): -0.1118 and -0.08196 and -0.1883
- Log2 reporter intensity values, COPS5 [5, 8]: -0.01371 and -0.03292 and 0.07504
- Log2 reporter intensity values, COPS5 [5, 9]: 0.04441 and 0.02519 and 0.1332
- Log2 reporter intensity values, COPS5 [5, 10]: 0.02465 and -0.01344 and 0.1212
- Log2 reporter intensity values, COPS5 [5, 11]: 0.08277 and 0.04467 and 0.1793
- Log2 reporter intensity values: COPS5 ([5]; 1 at 1 μM): 1.031 and 1.018 and 1.097
- Log2 reporter intensity values: COPS5 ([5]; 1 at 4 μM): 1.059 and 1.031 and 1.132
- Log2 t-test Difference ([5]; 1 - 1 μM): -0.09474
- Log2 t-test Difference ([5]; 1 - 4 μM): -0.06006
- Log2 reporter intensity values ([5]; 1_1 μM, DMSO subtracted): 0.03118 and 0.01753 and 0.09661
- Log2 reporter intensity values ([5]; 1_4 μM, DMSO subtracted): 0.05896 and 0.03137 and 0.1323
- Log2 reporter intensity values ([5]; 1 at 1 μM, DMSO subtracted): 0.04441 and 0.02519 and 0.1332
- Log2 reporter intensity values ([5]; 1 at 4 μM, DMSO subtracted): 0.08277 and 0.04467 and 0.1793
- Log2 reporter intensity values: OTUB1 ([6]; 1 at 1 μM): 1.079 and 1.058 and 1.055
- Log2 reporter intensity values: OTUB1 ([6]; 1 at 4 μM): 0.9564 and 0.9957 and 1.033
- Log2 reporter intensity values ([6]; 1_1 μM): 0.07905 and 0.05739 and 0.05461
- Log2 reporter intensity values ([6]; 1_4 μM): -0.04373 and -0.004436 and 0.03334
- Log2 reporter intensity values ([6]; 1 at 1 μM): 0.1099 and 0.08068 and 0.07687
- Log2 reporter intensity values ([6]; 1 at 4 μM): -0.06433 and -0.00624 and 0.04749
- Log2 reporter intensity values: USP16 ([7]; 1 at 1 μM): 1.022 and 1.047 and 1.014
- Log2 reporter intensity values: USP16 ([7]; 1 at 4 μM): 1.071 and 1.22 and 1.147
- Log2 reporter intensity values ([7]; 1_1 μM): 0.01937 and 0.04439 and 0.01154
- Log2 reporter intensity values ([7]; 1_4 μM): 0.06901 and 0.2175 and 0.1444
- Log2 reporter intensity values ([7]; 1 at 1 μM): 0.03077 and 0.06568 and 0.01967
- Log2 reporter intensity values ([7]; 1 at 4 μM): 0.09923 and 0.2865 and 0.1974
Structure (SMILES): N#CN1CCC[C@H]1C(=O)N1CCc2c(-c3c[nH]c4ncccc34)cccc21 [Compound 1]

— PMC7366380, “Discovery of a Potent and Selective Covalent Inhibitor and Activity-Based Probe for the Deubiquitylating Enzyme UCHL1, with Antifibrotic Activity” (Journal of the American Chemical Society, 2020)
